In one series the test system is H9c2 cells. In words: Cytotoxicity on H9c2 cells (CCK-8). Format: cell-based, rat. The following applies: for Inhibition rate: H9c2 cells, n=3. Summed up: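 Rat myocardial H9c2 cells were grown in DMEM containing 10% fetal bovine serum, Penicillin (100 U/mL) and Streptomycin (100 μg/mL) at 37 °C in humidified 5% CO2 and 95% air. For cytotoxicity testing, cells were plated in 96-well plates at 1 × 10^4 cells/well. Viability was measured with CCK-8, adding 10 μL per well, incubating 1 h, and reading absorbance at 450 nm on a microplate reader.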

For a further series, the system named is OGD/R-induced H9c2 cells. Kind of series: Protective effect on OGD/R-induced H9c2 cells (CCK-8 cell viability). To be noted: 1, 10, 25, 50 and 100 μM prior to OGD/R, vs model group. Format: cell-based, rat. Summed up:
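Rat H9c2 cardiomyocytes were treated with analytes at 25 and 50 μM for cytotoxicity, or at 1–100 μM before OGD/R (4 h glucose-free hypoxia, then 2 h normoxic reoxygenation). Viability was read by CCK-8 after 1 h, as absorbance at 450 nm.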

For series [1] the following is noted: rat, in vivo.
Method: (§1) Ion source parameters were set as follows: temperatures of drying gas and sheath gas were 300 °C and 300 °C, flow rates of drying gas and sheath gas were 7 L/min and 11 L/min, the nebulizer was set at 35 psig, capillary voltage was 3500 V (−), and nozzle voltage was 2000 V (−). […] Chromatographic separations were conducted on a ZORBAX Eclipse Plus C18 column (3.0 × 50 mm, 1.8 μm, Agilent Technologies, California, USA). The mobile phase was composed of 0.1% aqueous FA (A, (v/v)) and 0.1% formic acid methanol (B), the flow rate was set at 0.5 mL/min, and the column oven was maintained at 40 °C.
(§2) Protein precipitation was carried out for each time point for plasma samples, calibration samples, or QC samples by introducing four volumes of acetonitrile containing 400 ng/mL of icariin. Then, 10 μL 10% aqueous ascorbic acid (v/v) was spiked into each sample to prevent the oxidation of phenolic compounds. […] An aliquot (450 μL) of the supernatant was transferred and dried under nitrogen vacuum.
(§3) The pharmacokinetic parameters were calculated by DAS software (version 2.0) for a non-compartmental analysis.
Series [2] can be described thus: Pharmacokinetic study in rats after oral administration of QSG.
Method: as §1, §2, §3
Series [3] is described as follows: Concentrations of 24 analytes in QSG treated plasma (Table S5). To be noted: QSG treated plasma, n = 5.
Setting [4] is: rat plasma, single oral 7 g/kg QSG, n = 6.

Like-named read-outs stand apart in the source and are kept apart here.

Regarding `O=c1cc(-c2ccc(O)c(O)c2)oc2cc(O[C@@H]3O[C@H](CO)[C@@H](O)[C@H](O)[C@H]3O)cc(O)c12` [Luteoloside], the Inhibition rate in the series on H9c2 cells (25 μM) is given as -4.2 ± 4.7%. In addition, the Inhibition rate in the series with H9c2 cells (50 μM) is on record as 8.1 ± 5.7%. Moreover, in the series on H9c2 cells (100 μM), the Inhibition rate worked out at 4.1 ± 1.7%. Moreover, the “H9c2 cell survival after OGD/R (in words)” value in the series with OGD/R-induced H9c2 cells was “significantly improve H9c2 cell survival rates”. In series [1], this compound came in with an Oral relative bioavailability of 0.019%. Besides, in series [1] (po), the “AUC0→∞” value is 20.86 ng·h/mL and the “Shape of the plasma concentration–time curve (in words)” value is on record as “Double peaks”. Moreover, in series [1] (po, 7 g/kg), the AUC0→t amounted to 12.39 ± 2.708 ng·h/mL, the “AUC0→∞” value came out at 20.86 ± 6.586 ng·h/mL and the T1/2 is reported as 21.76 ± 16.85 h.
For Salvianolic acid B, the figures for the Inhibition rate in the series on H9c2 cells (25 μM), in the series with H9c2 cells (50 μM) and with H9c2 cells (100 μM) were -38.9 ± 5.2%, -17.1 ± 7.2% and 0.1 ± 3.2%, respectively. Also, the “Effect on H9c2 cell viability / cytotoxicity (in words)” value in the series with H9c2 cells (CCK-8, compared to the control group) is “significantly enhanced cell viabilities”. Besides, the “AUC0→∞” value stood at 2176 ng·h/mL in series [2] (Table S12, rats, oral QSG) and 2176 ± 842.3 ng·h/mL in series [2] (setting [4]). In addition, in series [2] (exposure (AUC0→∞) of the component in rats after oral QSG, as used for ECI), the AUCi is 2176. The same compound registered an Oral relative bioavailability in series [2] (exposure level (AUC0→∞) compared with the dosage of each compound in QSG) of 0.013%. The “Absorption efficiency / bioavailability (in words)” value in series [2] (from Table S12, rats, oral QSG) is on record as “much lower than most compounds”. In series [2] (setting [4]), this compound displayed an AUC0→t of 1475 ± 187.4 ng·h/mL. The Cmax – broadly, the highest concentration seen after dosing – in series [2] (setting [4]) turned out to be 205.3 ± 65.50 ng/mL. Also, the MRT (commonly the average time that molecules of a dose stay in the body) is reported as 11.08 ± 1.809 h in series [2] (setting [4]) and “more than 10 h” in series [2] (rat plasma, single oral 7 g/kg QSG, n = 6, listed as salvianolic acid B). This compound also displayed a T1/2 in series [2] (setting [4]) of 10.83 ± 5.740 h. Moreover, the Tmax (in general, the time from dosing to the highest level) in series [2] (setting [4]) worked out at 0.566 ± 0.182 h. Besides, the “Shape of the plasma concentration–time curve (in words)” value in series [2] (rats, oral QSG) is on record as “Double peaks”. Moreover, the “Share of the total exposures (AUC0→∞) of all analytes” value in series [2] (rats, oral QSG, 11 analytes) is reported as 43.48%. Moreover, in the series with OGD/R-induced H9c2 cells, the “H9c2 cell survival after OGD/R (in words)” value is recorded as “significantly improve H9c2 cell survival rates”. For the same compound, the Concentration in series [3] (0.08 h) came to 68.337 ± 49.223 ng/mL; in series [3] (0.17 h) it was 115.490 ± 60.235 ng/mL; in series [3] (0.5 h), 174.763 ± 84.875 ng/mL; in series [3] (1 h), 83.989 ± 21.934 ng/mL; in series [3] (2 h) it was 47.989 ± 9.996 ng/mL; in series [3] (4 h), 34.225 ± 16.349 ng/mL. The Concentration in series [3] (8 h) turned out to be 91.217 ± 8.136 ng/mL; in series [3] (12 h), 56.609 ± 10.151 ng/mL.

(Values after paper PMC12567096, “An Efficacy- and In Vivo Exposure-Oriented Integrated Study to Investigate the Effective Components of Qishen Granule” (Pharmaceuticals, 2025).)
